Experimental data: patent publication US8969413B2

Legend:
Wistar Albino rats = format: in vivo; conditions: 20 mg/kg versus vigabatrin 200 mg/kg, 45 and 90 days
Protocol: […]. The formulations for each treatment group were prepared fresh weekly in 0.9% normal saline.
All animals were acclimated for 7 days to the test facility prior to the start of dosing and were housed in individual polycarbonate cages. The cage environment uses a standard 12 hr/12 hr light dark cycle, with standard industrial fluorescent lighting during the light cycle. During the course of the study, the animals were monitored for mortality, moribundity, clinical signs of illness, feed intake, and body weight change. Any animals found in distress for more than 24 hours were humanely euthanized. […]. […] At the conclusion of the dosing phase (5 of each sex for 45 days and 10 of each sex for 90 days), the animals entered a 5-7 day “washout” period, after which electroretinograms (ERGs) were measured for both eyes. The animals were then humanely euthanized, by CO2 asphyxiation in accordance with AVMA guidelines on euthanasia, for post-mortem pathology examinations. […]
The electroretinograms were measured with an Espion^2 ERG system with ColorDome Ganzfeld type illuminator by Diagnosys. […]

Rat = test: subcutaneous Metrazol seizure threshold test (scMET); format: in vivo; conditions: 7 days IP, 20 mg/kg dose only, Metrazol 70 mg/kg
Protocol: Subcutaneous injection of the convulsant Metrazol produces clonic seizures in laboratory animals. […] Animals are pretreated with various doses of the test compound given by i.p. injection. At the previously determined TPE of the test compound, the dose of Metrazol which will induce convulsions in 97% of animals (CD97; 85 mg/kg mice) is injected into a loose fold of skin in the midline of the neck. The animals are placed in isolation cages to minimize stress (Swinyard et al, 1961) and observed for the next 30 minutes for the presence or absence of a seizure. An episode of clonic spasms, approximately 3-5 seconds, of the fore and/or hindlimbs, jaws, or vibrissae is taken as the endpoint.

Sprague-Dawley rats = test: μPET imaging of 11C-raclopride binding after cocaine

Q: For `N[C@H]1C[C@@H](C(=O)O)CC1=C(F)F` [CPP-115], which “visual field defects compared with vigabatrin” value (Wistar Albino rats) is on record?
A: less visual field defects than vigabatrin

Q: And the scMET protection (Rat)?
A: No protection

Q: And the “effective dose, times lower than the 300 mg/kg dose of vigabatrin” value (Sprague-Dawley rats; 0.5 mg/kg versus 300 mg/kg)?
A: 600 times

Q: What about the “effect on cocaine-induced increases in synaptic dopamine” value (Sprague-Dawley rats; 0.5 mg/kg, 2.5 h before cocaine 5.0 mg/kg i.v.) of the same compound?
A: complete blockade of cocaine-induced increases in synaptic dopamine

Q: And the “dose blocking cocaine-induced dopamine increase and CPP, times lower than vigabatrin” value (Sprague-Dawley rats; μPET and CPP, summary statement)?
A: 100 times
